Reference: US6440389B1, “Fluorescent agents for real-time measurement of organ function” (The General Hospital Corporation, priority 2000, dated 2002)

Experiment: Fluorometric analysis, excitation and emission spectra
Assay type: physicochemical
Conditions: FIG. 4
Protocol: For the synthesis of a nile blue-DTPA conjugate, 0.1 g of DTPA dianhydride (ccDPTA) was dissolved in 6 ml of dimethyl sulfoxide (DMSO) in a round bottom flask. Ninety mg of nile blue were dissolved in DMSO and 36 μL of triethyl amine were added, turning the solution purple. The nile blue solution was added drop wise to the solution of ccDTPA while stirring. The solution turned blue. Thirty-eight μL of […] (TEA) were added to the final mixture, turning the solution purple. After mixing, the mixture was heated to 60° C. and stirred for 2 hours. The reaction mixture was then loaded onto a silica gel column and eluted with acetone:ethylacetate. The fractions corresponding to the nile blue-DTPA conjugate were pooled and evaporated, yielding a magenta colored oil. The oil was rechromatographed on a second silica gel column using acetone as eluant. The nile blue-DTPA conjugated fractions were pooled and rotate-evaporated to give a magenta colored oil. […]
The only group of chelating agents known to produce highly soluble and stable lanthanide chelates are the polyamino polyacetic acid analogs. […] The simplest initial approach was to study the fluorescence characteristics of the chelate between Eu and other already commercially available polyaminopoly bis (2-aminoethyl ether) acetic acids. […]

Question: With `CC[N+](CC)=c1ccc2nc3c(cc(N)c4ccccc43)oc-2c1` [nile blue] as the compound, how does the emission fluorescence read?
Answer: The emission fluorescence was 695 nm.

Question: And the maximal excitation?
Answer: Its maximal excitation is “approximately 390 nm”.
